Measured values published in publication PMC8841437 (Clinical and Translational Science, 2021).

Experiments:
healthy participants = assay: Safety and tolerability; assay type: in vivo, human
[1] = system: arterial and venous thrombosis; conditions: preclinical models of arterial and venous thrombosis; cited from earlier work
[2] = Urinary excretion of milvexian; assay type: in vivo, human
Single ascending dose = assay type: in vivo, human; conditions: for increase in bioavailability by food intake: fed vs fasted; for AUC: AUC(0‐T); for AUC / Cmax: n = 6, geometric mean (geometric CV%); for Cmax: fed (high-fat breakfast)
[3] = MAD panel 11, 500 mg q.d. fed, n = 6
[4] = MAD panel 12, 35 mg b.i.d. fasted, n = 6
[5] = MAD panel 13, 200 mg b.i.d. fasted, n = 6
[6] = MAD, all participants treated with milvexian, N = 42
[7] = all SAD and MAD dosing regimens

## C[C@@H]1CCC[C@H](n2cnc(-c3cc(Cl)ccc3-n3cc(Cl)nn3)cc2=O)c2cc(ccn2)-c2c(cnn2C(F)F)NC1=O [milvexian]
Healthy participants; [3]
  Abdominal discomfort (TEAE): 0 n (%)
  Abdominal pain (TEAE): 0 n (%)
  Any TEAE: 3 (50.0) n (%)
  Diarrhea (TEAE): 0 n (%)
  Dizziness (TEAE): 0 n (%)
  Headache (TEAE): 0 n (%)
  Nausea (TEAE): 0 n (%)
  Oropharyngeal pain (TEAE): 0 n (%)
  Pain in extremity (TEAE): 0 n (%)
Healthy participants; [4]
  Abdominal discomfort (TEAE): 0 n (%)
  Abdominal pain (TEAE): 0 n (%)
  Any TEAE: 2 (33.3) n (%)
  Diarrhea (TEAE): 0 n (%)
  Dizziness (TEAE): 1 (16.7) n (%)
  Headache (TEAE): 0 n (%)
  Nausea (TEAE): 0 n (%)
  Oropharyngeal pain (TEAE): 0 n (%)
  Pain in extremity (TEAE): 0 n (%)
Healthy participants; [5]
  Abdominal discomfort (TEAE): 0 n (%)
  Abdominal pain (TEAE): 0 n (%)
  Any TEAE: 2 (33.3) n (%)
  Diarrhea (TEAE): 0 n (%)
  Dizziness (TEAE): 1 (16.7) n (%)
  Headache (TEAE): 0 n (%)
  Nausea (TEAE): 0 n (%)
  Oropharyngeal pain (TEAE): 1 (16.7) n (%)
  Pain in extremity (TEAE): 0 n (%)
Healthy participants; MAD panels, milvexian
  Diarrhea (TEAE): 11.9%
  Headache (TEAE): 14.3%
Healthy participants; MAD panels, participants who received milvexian (21 participants)
  participants reporting TEAEs: 50.0%
Healthy participants; [6]
  Abdominal discomfort (TEAE): 2 (4.8) n (%)
  Abdominal pain (TEAE): 2 (4.8) n (%)
  Any TEAE: 21 (50.0) n (%)
  Diarrhea (TEAE): 5 (11.9) n (%)
  Dizziness (TEAE): 3 (7.1) n (%)
  Headache (TEAE): 6 (14.3) n (%)
  Nausea (TEAE): 3 (7.1) n (%)
  Oropharyngeal pain (TEAE): 2 (4.8) n (%)
  Pain in extremity (TEAE): 2 (4.8) n (%)
Healthy participants; SAD and MAD
  ECG abnormalities: no clinically significant ECG abnormalities
  incidence of laboratory and vital sign abnormalities vs placebo: no relevant differences
Healthy participants; SAD panels, fasted participants who received milvexian (three participants)
  participants reporting TEAEs: 8.3%
Healthy participants; SAD up to 500 mg, MAD up to 200 mg b.i.d. or 500 mg q.d.
  deaths or other SAEs: No deaths or other SAEs occurred
Healthy participants; SAD, 300 mg, fasted
  Headache (TEAE): 2 n
Healthy participants; SAD, 500-mg group, fed (one participant)
  nausea (TEAE) after a high-fat breakfast: 16.7%
Healthy participants; [7]
  clinically significant bleeding events: no clinically significant bleeding events
  severity of TEAEs: mild
Healthy participants; same participant, 35-mg b.i.d. group, within normal limits
  platelet count at next sampling time 2 days later: 1.84e+11 L⁻¹
[1]
  antithrombotic activity: antithrombotic activity while preserving homeostasis
[2]; MAD panel 9, 70 mg q.d., day 1
  mean total amount excreted in urine from 0 to 24 h postdose: 14.8 % of the administered dose
[2]; MAD panel 9, 70 mg q.d., day 14
  mean total amount excreted in urine from 0 to 24 h postdose: 17.3 % of the administered dose
[2]; MAD panel 10, 200 mg q.d., day 1
  mean total amount excreted in urine from 0 to 24 h postdose: 10.4 % of the administered dose
[2]; MAD panel 10, 200 mg q.d., day 14
  mean total amount excreted in urine from 0 to 24 h postdose: 14.1 % of the administered dose
[2]; all panels
  Renal excretion: less than 20%
Single ascending dose; SAD 200-mg panel
  increase in bioavailability by food intake: ~ 1.4 fold
Single ascending dose; SAD 500-mg panel
  increase in bioavailability by food intake: ~ 2 fold
Single ascending dose; SAD panels 4 and 6, fed vs fasted
  mean T1/2 shortened when administered with food: 1.5 h
Single ascending dose; SAD, fasted, 20 to 200 mg
  dose proportionality of Cmax and exposure: generally dose‐proportional
Single ascending dose; human, plasma, oral, 4 mg, SAD panel 1, 4 mg, fasted
  AUC: 125 ng·h/mL
Single ascending dose; human, plasma, oral, 20 mg, SAD panel 2, 20 mg, fasted
  AUC: 1220 ng·h/mL
Single ascending dose; human, plasma, oral, 60 mg, SAD panel 3, 60 mg, fasted
  AUC: 3790 ng·h/mL
Single ascending dose; human, plasma, oral, 200 mg, SAD panel 4, 200 mg, fasted
  AUC: 12500 ng·h/mL
Single ascending dose; human, plasma, oral, 200 mg, SAD panel 4, 200 mg, fed
  AUC: 17800 ng·h/mL
Single ascending dose; human, plasma, oral, 200 mg, SAD panel 4, 200 mg
  Cmax: 1640 ng/mL
Single ascending dose; human, plasma, oral, 300 mg, SAD panel 5, 300 mg, fasted
  AUC: 14600 ng·h/mL
Single ascending dose; human, plasma, oral, 500 mg, SAD panel 6, 500 mg, fasted
  AUC: 21000 ng·h/mL
Single ascending dose; human, plasma, oral, 500 mg, SAD panel 6, 500 mg, fed
  AUC: 44300 ng·h/mL
Single ascending dose; human, plasma, oral, 500 mg, SAD panel 6, 500 mg
  Cmax: 3360 ng/mL
Single ascending dose; human, plasma, oral, T1/2, range across all SAD panels, SAD, 4-500 mg
  half-life: 8.3 to 13.8 h
Single ascending dose; human, plasma, oral, Tmax, summary in discussion, rapid absorption
  Tmax: 2 to 4 h
